Holding throughout (assay type): biochemical
In one experiment the target is T1, IGFR-1 (Homo sapiens, UniProt P08069).
T1 construct: Kinases are expressed as either kinase domains or full length constructs; made in house
Nature of the experiment: Kinase inhibition assay, IGFR-1 (Table 2). As to conditions: Table 2, kinase inhibition class.

The next experiment addresses T2, Kdr (Homo sapiens, UniProt P35968).
T2 construct: Kinases are expressed as either kinase domains or full length constructs; made in house
Nature of the experiment: Kinase inhibition assay (33P transfer), Kdr. As to conditions: read-out: KDR-1. Summed up: (§1)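 Liquid scintillation counting of 33P on plate-bound synthetic substrates gives kinase activity. Plates are washed in 0.5% phosphoric acid first; kinases are tagged recombinant proteins from E. coli or baculovirus-infected High Five cells.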

In the next experiment the target is T3, AKT (Homo sapiens, UniProt Q9Y243).
T3 construct: Kinases are expressed as either kinase domains or full length constructs; made in house
Description: Kinase inhibition assay (33P transfer), AKT. As to conditions: Table 2, kinase inhibition class; read-out: AKT3-1. In short, it runs like this: as §1

In the next experiment the target is T4, Lck (Homo sapiens, UniProt P06239).
T4 construct: Kinases are expressed as either kinase domains or full length constructs; made in house
Description: Kinase inhibition assay (33P transfer), Lck. As to conditions: read-out: Lck-1. In short, it runs like this: as §1

The target of the next experiment is T5, EGFR (Homo sapiens, UniProt P00533).
T5 construct: Kinases are expressed as either kinase domains or full length constructs; made in house
Description: Kinase inhibition assay (33P transfer), EGFR. To be noted: Table 2, kinase inhibition class; read-out: EGFR-1. In short, it runs like this: (§2)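 IC50: inhibitor concentration lowering 33P incorporation into immobilised substrate by 50%. Label transferred from ATP to poly(Glu,Tyr) 4:1 or poly(Arg,Ser) 3:1 is measured after a 0.5% phosphoric acid wash by liquid scintillation.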

For a further experiment, the target named is T6, Zap-70 (Homo sapiens, UniProt P43403).
T6 construct: Kinases are expressed as either kinase domains or full length constructs; made in house
T6 sequence (P43403 1-619): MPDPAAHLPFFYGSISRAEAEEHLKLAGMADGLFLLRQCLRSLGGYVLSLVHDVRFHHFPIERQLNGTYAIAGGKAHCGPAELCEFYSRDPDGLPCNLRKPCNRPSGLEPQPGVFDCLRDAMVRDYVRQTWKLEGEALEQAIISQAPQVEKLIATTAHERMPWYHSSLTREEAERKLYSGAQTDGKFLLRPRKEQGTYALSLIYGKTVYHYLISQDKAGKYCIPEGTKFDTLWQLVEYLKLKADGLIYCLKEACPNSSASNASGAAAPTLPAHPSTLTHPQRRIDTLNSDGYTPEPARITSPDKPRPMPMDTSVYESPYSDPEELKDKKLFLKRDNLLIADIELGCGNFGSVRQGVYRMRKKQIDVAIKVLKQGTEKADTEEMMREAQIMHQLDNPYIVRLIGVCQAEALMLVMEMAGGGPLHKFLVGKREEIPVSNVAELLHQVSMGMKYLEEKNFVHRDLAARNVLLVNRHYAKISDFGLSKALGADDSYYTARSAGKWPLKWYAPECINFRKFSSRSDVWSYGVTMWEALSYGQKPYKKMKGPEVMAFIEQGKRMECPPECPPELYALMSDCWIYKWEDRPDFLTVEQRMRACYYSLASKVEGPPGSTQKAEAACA
Nature of the experiment: Kinase inhibition assay (33P transfer), Zap-70. As to conditions: read-out: Zap-1. Summed up: as §1

The target in a further experiment is T7, Itk (Homo sapiens, UniProt Q08881).
T7 construct: Kinases are expressed as either kinase domains or full length constructs; made in house
T7 sequence (Q08881 1-620): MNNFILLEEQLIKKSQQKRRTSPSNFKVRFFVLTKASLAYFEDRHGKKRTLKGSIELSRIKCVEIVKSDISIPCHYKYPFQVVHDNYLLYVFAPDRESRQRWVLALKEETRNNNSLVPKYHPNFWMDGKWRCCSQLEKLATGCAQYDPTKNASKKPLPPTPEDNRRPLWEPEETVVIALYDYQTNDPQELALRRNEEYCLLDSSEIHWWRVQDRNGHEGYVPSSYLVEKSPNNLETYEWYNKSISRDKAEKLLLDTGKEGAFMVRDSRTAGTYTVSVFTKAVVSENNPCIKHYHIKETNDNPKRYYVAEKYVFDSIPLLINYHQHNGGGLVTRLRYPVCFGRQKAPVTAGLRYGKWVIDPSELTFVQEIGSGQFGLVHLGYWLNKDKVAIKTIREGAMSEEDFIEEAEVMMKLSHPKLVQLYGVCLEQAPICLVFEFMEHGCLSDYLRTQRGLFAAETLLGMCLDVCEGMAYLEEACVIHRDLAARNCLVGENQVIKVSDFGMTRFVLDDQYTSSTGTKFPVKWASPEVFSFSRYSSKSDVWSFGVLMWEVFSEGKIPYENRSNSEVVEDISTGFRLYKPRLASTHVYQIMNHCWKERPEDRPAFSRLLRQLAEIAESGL
Description: Kinase inhibition assay (33P transfer), Itk. As to conditions: read-out: Itk-1. Summed up: as §2

For a further experiment, the target named is T8, c-Met (Homo sapiens, UniProt P08581).
T8 construct: Kinases are expressed as either kinase domains or full length constructs; made in house
Nature of the experiment: Kinase inhibition assay (33P transfer), c-Met. As to conditions: Table 2, kinase inhibition class; read-out: Met-1. In short, it runs like this:
as §2

For a further experiment, the target named is T9, ErbB2 (Homo sapiens, UniProt P04626).
T9 construct: Kinases are expressed as either kinase domains or full length constructs; made in house
Description: Kinase inhibition assay (33P transfer), ErbB2. As to conditions: read-out: ErbB2-2. Summed up: as §2

The next experiment has as its target T10, PDGFRB (Homo sapiens, UniProt P09619).
T10 construct: Kinases are expressed as either kinase domains or full length constructs; made in house
Description: Kinase inhibition assay (33P transfer), PDGFRB. To be noted: read-out: PDGFRB-1.

SMILES strings stand for the structures. pIC50: −log10 of the molar value. Some results are limits rather than exact numbers.

T2 sequence (P35968 20-1356, species assumed): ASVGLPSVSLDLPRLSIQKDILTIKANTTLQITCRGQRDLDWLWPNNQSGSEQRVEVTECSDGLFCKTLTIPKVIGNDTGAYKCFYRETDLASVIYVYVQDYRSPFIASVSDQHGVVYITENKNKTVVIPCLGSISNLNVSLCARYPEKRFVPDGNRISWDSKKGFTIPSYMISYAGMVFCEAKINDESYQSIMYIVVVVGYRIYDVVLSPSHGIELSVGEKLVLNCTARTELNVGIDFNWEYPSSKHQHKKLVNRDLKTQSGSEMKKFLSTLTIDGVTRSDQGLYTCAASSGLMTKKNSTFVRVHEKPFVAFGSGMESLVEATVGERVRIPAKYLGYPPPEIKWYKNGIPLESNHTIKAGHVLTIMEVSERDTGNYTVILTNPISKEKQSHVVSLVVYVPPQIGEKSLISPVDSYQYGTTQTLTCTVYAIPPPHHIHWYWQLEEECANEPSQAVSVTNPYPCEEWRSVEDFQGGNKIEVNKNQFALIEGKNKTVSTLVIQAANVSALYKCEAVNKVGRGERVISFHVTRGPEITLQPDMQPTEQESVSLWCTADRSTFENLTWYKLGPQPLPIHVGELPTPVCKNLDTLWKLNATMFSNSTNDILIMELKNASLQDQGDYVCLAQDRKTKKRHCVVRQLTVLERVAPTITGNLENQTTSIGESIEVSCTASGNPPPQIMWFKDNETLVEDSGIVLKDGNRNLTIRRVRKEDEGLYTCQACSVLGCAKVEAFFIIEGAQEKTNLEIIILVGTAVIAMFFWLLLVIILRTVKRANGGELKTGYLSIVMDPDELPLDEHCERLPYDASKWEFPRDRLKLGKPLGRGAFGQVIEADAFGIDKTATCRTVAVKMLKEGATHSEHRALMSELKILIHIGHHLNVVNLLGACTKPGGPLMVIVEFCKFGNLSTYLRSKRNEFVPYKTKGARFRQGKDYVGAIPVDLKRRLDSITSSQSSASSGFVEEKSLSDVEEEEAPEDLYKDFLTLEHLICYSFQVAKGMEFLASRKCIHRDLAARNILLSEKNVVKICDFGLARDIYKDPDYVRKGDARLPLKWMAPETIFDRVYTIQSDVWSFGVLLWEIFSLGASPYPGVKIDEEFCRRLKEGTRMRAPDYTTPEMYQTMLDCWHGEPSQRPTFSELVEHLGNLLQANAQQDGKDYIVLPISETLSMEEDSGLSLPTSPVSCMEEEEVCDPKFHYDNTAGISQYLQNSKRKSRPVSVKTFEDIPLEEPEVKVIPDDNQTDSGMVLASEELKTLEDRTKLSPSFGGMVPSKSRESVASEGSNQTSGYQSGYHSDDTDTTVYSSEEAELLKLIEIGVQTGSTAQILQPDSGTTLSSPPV
T10 sequence (P09619 33-1106, species assumed): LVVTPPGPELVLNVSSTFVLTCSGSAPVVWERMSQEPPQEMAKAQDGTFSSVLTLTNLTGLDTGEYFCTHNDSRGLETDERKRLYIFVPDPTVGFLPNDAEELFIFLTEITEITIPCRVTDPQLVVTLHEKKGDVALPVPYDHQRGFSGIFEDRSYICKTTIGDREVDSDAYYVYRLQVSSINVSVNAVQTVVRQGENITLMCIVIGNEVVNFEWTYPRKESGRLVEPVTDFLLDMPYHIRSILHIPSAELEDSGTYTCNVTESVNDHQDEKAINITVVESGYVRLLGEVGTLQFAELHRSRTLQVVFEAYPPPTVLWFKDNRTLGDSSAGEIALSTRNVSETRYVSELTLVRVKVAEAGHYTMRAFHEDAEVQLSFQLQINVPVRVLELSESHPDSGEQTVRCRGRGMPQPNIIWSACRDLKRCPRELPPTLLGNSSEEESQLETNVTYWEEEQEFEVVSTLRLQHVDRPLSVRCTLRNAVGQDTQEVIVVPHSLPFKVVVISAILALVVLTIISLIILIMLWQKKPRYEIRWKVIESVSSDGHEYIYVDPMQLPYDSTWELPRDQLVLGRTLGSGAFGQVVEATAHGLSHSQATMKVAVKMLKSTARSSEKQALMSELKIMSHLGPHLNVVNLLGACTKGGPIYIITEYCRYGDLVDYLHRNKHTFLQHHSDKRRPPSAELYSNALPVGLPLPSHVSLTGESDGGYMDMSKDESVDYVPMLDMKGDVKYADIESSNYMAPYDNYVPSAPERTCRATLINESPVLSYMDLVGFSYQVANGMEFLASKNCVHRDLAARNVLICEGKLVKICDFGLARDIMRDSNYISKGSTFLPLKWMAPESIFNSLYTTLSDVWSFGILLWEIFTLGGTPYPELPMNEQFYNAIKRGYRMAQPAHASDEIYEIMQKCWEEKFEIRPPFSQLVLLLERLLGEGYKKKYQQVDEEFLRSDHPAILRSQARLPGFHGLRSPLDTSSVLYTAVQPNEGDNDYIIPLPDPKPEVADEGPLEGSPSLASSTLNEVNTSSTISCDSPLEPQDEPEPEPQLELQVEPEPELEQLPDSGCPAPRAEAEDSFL
T8 sequence (P08581 25-1390): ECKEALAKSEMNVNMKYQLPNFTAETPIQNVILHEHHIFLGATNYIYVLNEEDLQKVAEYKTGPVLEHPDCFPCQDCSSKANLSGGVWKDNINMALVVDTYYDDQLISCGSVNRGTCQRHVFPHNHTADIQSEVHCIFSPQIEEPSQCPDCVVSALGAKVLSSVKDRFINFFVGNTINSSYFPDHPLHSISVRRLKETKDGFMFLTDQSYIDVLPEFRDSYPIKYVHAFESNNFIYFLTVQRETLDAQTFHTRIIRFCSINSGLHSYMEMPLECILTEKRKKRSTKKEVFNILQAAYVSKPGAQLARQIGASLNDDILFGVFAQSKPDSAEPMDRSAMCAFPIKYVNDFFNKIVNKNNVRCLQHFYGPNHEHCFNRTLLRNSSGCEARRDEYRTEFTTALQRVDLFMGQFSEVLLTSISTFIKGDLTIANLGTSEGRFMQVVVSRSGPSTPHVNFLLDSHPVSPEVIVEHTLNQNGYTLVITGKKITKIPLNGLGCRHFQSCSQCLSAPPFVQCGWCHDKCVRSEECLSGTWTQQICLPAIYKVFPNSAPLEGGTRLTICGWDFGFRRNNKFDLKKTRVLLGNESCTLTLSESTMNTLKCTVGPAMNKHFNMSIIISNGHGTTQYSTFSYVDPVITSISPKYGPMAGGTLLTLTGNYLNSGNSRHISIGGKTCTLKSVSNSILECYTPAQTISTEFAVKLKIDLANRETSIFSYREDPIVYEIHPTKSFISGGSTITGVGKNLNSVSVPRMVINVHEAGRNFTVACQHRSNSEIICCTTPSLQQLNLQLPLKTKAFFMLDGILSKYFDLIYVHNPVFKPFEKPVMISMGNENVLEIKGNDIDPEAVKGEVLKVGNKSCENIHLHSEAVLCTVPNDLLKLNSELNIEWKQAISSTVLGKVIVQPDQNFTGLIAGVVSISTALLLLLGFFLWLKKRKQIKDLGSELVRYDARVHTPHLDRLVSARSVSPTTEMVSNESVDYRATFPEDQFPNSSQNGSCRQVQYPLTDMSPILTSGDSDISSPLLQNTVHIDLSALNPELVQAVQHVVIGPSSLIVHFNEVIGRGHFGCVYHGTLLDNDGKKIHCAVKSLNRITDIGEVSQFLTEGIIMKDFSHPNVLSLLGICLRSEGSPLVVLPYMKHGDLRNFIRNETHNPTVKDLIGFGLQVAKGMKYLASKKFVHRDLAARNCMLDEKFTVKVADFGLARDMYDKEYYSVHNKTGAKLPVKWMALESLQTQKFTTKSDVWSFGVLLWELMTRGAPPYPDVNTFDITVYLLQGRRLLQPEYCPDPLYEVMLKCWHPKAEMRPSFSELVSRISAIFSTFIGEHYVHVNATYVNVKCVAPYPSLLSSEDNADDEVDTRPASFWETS
T3 sequence (Q9Y243 whole entry, the tested form may be a part): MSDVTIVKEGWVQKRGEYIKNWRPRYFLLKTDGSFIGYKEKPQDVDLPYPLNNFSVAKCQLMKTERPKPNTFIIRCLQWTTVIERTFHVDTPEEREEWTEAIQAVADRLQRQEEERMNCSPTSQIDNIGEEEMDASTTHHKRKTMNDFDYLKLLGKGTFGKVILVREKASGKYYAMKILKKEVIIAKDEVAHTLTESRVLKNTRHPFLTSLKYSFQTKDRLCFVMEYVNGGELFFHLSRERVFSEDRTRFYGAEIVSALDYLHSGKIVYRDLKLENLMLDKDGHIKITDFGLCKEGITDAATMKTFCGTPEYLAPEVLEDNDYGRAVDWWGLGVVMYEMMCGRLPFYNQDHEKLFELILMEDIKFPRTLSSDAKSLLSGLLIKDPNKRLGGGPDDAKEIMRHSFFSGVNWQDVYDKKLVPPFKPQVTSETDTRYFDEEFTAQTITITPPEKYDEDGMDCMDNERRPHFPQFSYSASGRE
T4 sequence (P06239 whole entry, species assumed, the tested form may be a part): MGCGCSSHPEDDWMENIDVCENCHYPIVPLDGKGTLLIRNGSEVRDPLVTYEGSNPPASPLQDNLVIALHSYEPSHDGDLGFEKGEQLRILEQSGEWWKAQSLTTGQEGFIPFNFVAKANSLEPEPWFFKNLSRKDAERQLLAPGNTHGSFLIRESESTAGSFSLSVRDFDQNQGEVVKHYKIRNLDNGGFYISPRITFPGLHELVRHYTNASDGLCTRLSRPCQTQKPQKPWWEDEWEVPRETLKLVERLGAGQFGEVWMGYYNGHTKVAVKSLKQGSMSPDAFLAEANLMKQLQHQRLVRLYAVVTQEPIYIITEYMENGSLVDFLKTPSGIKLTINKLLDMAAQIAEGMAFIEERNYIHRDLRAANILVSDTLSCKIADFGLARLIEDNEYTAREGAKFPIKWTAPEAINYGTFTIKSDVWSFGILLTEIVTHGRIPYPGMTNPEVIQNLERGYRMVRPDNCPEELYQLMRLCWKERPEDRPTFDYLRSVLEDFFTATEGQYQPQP

For `CN(c1cccc(Cl)c1)c1ncnc(Nc2ccc(NC(=O)OC(C)(C)C)cc2)n1` [Compound 750], the pIC50 at IGFR-1 was less than 4.98; on Kdr it was less than 4.98; at AKT, less than 4.98; on Lck, 5.25 to 6.03; on EGFR, greater than 6.03; on Zap-70, less than 4.98. Moreover, the pIC50 on Itk is less than 4.98; on c-Met, 5.09 to 5.25; at ErbB2, 5.09 to 5.25; at PDGFRB, less than 4.98.
`CC(=O)NS(=O)(=O)c1ccc(Nc2ncnc(N(C)c3cccc(Cl)c3)n2)cc1` [Compound 751]: the pIC50 against IGFR-1 was less than 4.98; at Kdr, 5.26 to 6.03; at AKT, less than 4.98; at Lck, 5.09 to 5.26; at EGFR, greater than 6.03; at Zap-70 it was less than 4.98. For the same compound, the pIC50 on Itk is less than 4.98; on c-Met it was less than 4.98; at ErbB2 it was less than 4.98; at PDGFRB, 5.26 to 6.03.
In the case of `CN(c1cccc(Cl)c1)c1ncnc(NC2CCN(Cc3ccccc3)CC2)n1` [Compound 752], the pIC50 against IGFR-1 was less than 4.96; on Kdr it was less than 4.96; at AKT, less than 4.96; at Lck, less than 4.96; at EGFR, 5.23 to 6.01; at Zap-70 it was less than 4.96. For the same compound, the pIC50 on Itk, at c-Met, on ErbB2 and on PDGFRB was less than 4.96 in each case.
With `CN(c1cccc(Cl)c1)c1ncnc(Nc2cc(-c3ccco3)[nH]n2)n1` [Compound 753], the pIC50 against IGFR-1 was 5.19 to 5.96; at Kdr it was 5.19 to 5.96; on AKT, less than 4.91; on Lck, 5.19 to 5.96; at EGFR, greater than 5.96; at Zap-70, 5.19 to 5.96. In addition, the pIC50 on Itk, on c-Met, at ErbB2 and at PDGFRB was 5.19 to 5.96 each time.
With `CN(c1cccc(Cl)c1)c1ncnc(Nc2cc(C(C)(C)C)on2)n1` [Compound 754], the pIC50 against IGFR-1, on Kdr, at AKT, at Lck, on EGFR and on Zap-70 was less than 4.90 in each case. For the same compound, the pIC50 at Itk, on c-Met, on ErbB2 and at PDGFRB was less than 4.90 each time.
For `CN(c1cccc(Cl)c1)c1ncnc(N[C@@H]2CCN(Cc3ccccc3)C2)n1` [Compound 755], the pIC50 against IGFR-1, at Kdr, at AKT, on Lck, at EGFR and at Zap-70 was less than 4.94 each time. Besides, the pIC50 at Itk, on c-Met, on ErbB2 and at PDGFRB was less than 4.94 throughout.
With `CN(c1cccc(Cl)c1)c1ncnc(Nc2ccncc2)n1` [Compound 756], the pIC50 at IGFR-1 is less than 4.84; on Kdr, less than 4.84; at AKT it was less than 4.84; on Lck it was 5.12 to 5.89; at EGFR, greater than 5.89; at Zap-70, less than 4.84. Besides, the pIC50 is less than 4.84 at Itk, 5.12 to 5.89 on c-Met, less than 4.84 on ErbB2 and 5.12 to 5.89 at PDGFRB.
In the case of `CN(c1cccc(Cl)c1)c1ncnc(Nc2ncccn2)n1` [Compound 757], the pIC50 at IGFR-1 is less than 4.84; on Kdr, less than 4.84; on AKT, less than 4.84; at Lck it was less than 4.84; on EGFR, greater than 5.89; at Zap-70, less than 4.84. Further, the pIC50 at Itk, at c-Met, at ErbB2 and on PDGFRB was less than 4.84 in each case.

Source of the values: US7074789B2, “Kinase inhibitors” (Amgen Inc., priority 1999, dated 2006).
